{
  "source": "patent US20190234940A1",
  "about": "“METABOLIC RESTRICTION IN CELL-BASED ASSAYS” (priority 2016, published 2019)",
  "key": {"CYP2C9 [1]": {"molecular_target": "T1, CYP2C9 (Homo sapiens, UniProt P11712)", "T1 sequence (P11712 whole entry)": "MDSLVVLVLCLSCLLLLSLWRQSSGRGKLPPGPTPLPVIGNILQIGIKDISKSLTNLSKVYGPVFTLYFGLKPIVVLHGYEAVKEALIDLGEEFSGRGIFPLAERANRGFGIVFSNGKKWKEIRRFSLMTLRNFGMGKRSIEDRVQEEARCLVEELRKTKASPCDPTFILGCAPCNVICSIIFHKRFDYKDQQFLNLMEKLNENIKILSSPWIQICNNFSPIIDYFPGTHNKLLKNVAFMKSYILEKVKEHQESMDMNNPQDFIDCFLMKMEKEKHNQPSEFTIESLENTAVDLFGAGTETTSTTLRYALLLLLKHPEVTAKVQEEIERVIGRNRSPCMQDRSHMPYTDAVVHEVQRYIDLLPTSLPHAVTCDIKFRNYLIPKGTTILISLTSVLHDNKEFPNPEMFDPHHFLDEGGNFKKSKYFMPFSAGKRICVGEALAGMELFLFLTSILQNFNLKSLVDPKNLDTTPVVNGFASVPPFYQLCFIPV", "test": "P450-Glo CYP2C9 activity in HBV-infected HepaRG cells"}, "CYP2C9 [2]": {"molecular_target": "T1, CYP2C9"}, "CYP3A4": {"molecular_target": "T2, CYP3A4 (Homo sapiens, UniProt P08684)", "T2 construct": "CYP1A2, CYP2C9, and CYP3A4 activity were determined in HBV-infected HepaRG cells; endogenous in cells; host or cells: differentiated HepaRG cells infected with HBV", "T2 sequence (P08684 whole entry)": "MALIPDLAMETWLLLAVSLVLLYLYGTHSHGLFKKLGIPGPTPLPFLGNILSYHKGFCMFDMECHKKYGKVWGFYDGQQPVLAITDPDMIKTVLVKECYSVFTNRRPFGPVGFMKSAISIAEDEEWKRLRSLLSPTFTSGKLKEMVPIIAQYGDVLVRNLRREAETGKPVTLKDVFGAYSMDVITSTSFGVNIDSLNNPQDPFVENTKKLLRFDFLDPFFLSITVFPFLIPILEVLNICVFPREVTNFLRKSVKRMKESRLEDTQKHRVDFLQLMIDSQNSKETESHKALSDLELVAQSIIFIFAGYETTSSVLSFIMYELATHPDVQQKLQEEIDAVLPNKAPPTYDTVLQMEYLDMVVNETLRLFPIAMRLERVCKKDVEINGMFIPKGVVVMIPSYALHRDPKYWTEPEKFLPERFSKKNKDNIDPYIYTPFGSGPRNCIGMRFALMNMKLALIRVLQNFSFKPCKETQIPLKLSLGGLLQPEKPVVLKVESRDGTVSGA", "test": "P450-Glo CYP3A4 activity in HBV-infected HepaRG cells", "assay_type": "cell-based", "conditions": "day 11 p.i."}, "CYP1A2": {"molecular_target": "T3, CYP1A2 (Homo sapiens, UniProt P05177)", "T3 construct": "CYP1A2, CYP2C9, and CYP3A4 activity were determined in HBV-infected HepaRG cells; endogenous in cells; host or cells: differentiated HepaRG cells infected with HBV", "T3 sequence (P05177 1-516)": "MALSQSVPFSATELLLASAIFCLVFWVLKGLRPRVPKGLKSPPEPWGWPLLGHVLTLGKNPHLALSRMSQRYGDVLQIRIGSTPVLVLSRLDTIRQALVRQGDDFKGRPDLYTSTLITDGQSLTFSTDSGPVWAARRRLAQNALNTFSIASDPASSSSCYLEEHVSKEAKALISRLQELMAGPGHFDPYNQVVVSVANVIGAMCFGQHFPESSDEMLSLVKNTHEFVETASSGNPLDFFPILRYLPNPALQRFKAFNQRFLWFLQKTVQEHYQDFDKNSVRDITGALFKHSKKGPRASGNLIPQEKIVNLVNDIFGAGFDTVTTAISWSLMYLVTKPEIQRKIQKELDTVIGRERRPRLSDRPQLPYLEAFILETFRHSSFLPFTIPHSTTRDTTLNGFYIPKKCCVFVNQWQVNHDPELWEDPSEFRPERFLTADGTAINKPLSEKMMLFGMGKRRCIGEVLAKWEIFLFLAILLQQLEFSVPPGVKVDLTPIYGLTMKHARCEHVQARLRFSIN", "test": "P450-Glo CYP1A2 activity in HBV-infected HepaRG cells", "assay_type": "cell-based", "conditions": "day 11 p.i."}, "[3]": {"conditions": "SKF-525A 100 or 200 μM 1 h twice, or 2 or 20 μM twice for 3 days"}, "[4]": {"conditions": "ABT 10 or 20 mM 1 h twice, or 0.1 or 0.2 mM twice for 3 days (days 5 and 8 p.i.)"}},
  "note": "Where a name gives a salt, the structure may show the parent alone. Read-outs that look alike come from different tables or passages of the source.",
  "data": [
    {"smiles": "Cc1nc2c([nH]1)c(=O)n(C)c(=O)n2Cc1ccco1", "note": "[furafylline]", "values": [
      {"measurement": "CYP2C9 inhibition", "setting": "CYP2C9 [1]; furafylline alone, titration", "value": "also inhibit"}
    ]},
    {"smiles": "CC(=O)N1CCN(c2ccc(OCC3COC(Cn4ccnc4)(c4ccc(Cl)cc4Cl)O3)cc2)CC1", "note": "(stereo not shown) [ketoconazole]", "values": [
      {"measurement": "CYP2C9 inhibition", "setting": "CYP2C9 [2]", "value": "also inhibit"}
    ]},
    {"smiles": "CCCC(C(=O)OCCN(CC)CC)(c1ccccc1)c1ccccc1", "note": "[SKF-525A, proadifen hydrochloride]", "values": [
      {"measurement": "CYP3A4 inhibition relative to other CYPs", "setting": "CYP3A4; [3]", "value": "inhibited CYP3A4 better than CYP2C9"},
      {"measurement": "CYP1A2 inhibition relative to other CYPs", "setting": "CYP1A2; [3]", "value": "inhibited CYP1A2 less"}
    ]},
    {"smiles": "Nn1nnc2ccccc21", "note": "[ABT, 1-aminobenzotriazole]", "values": [
      {"measurement": "inhibition of CYP3A4", "setting": "CYP3A4; [4]", "value": "> 90", "unit": "%"},
      {"measurement": "inhibition of CYP2C9", "setting": "CYP2C9 [1]; ABT 10 or 20 mM 1 h twice, or 0.1 or 0.2 mM twice for 3 days (days 5 and 8 p.i.), day 11 p.i.", "value": "72%-75%"},
      {"measurement": "inhibition of CYP1A2", "setting": "CYP1A2; [4]", "value": "> 90", "unit": "%"}
    ]}
  ]
}
